Laboratory results taken from the supplement of paper PMC10307832.

Experiments:
Test in all cases: relative viability (nuclei count vs DMSO), 5 days (fraction); higher = more cells survive
EHT 1864 + Navitoclax = compound: C1COCCN1CC2=CC(=O)C(=CO2)OCCCCCSC3=C4C=CC(=CC4=NC=C3)C(F)(F)F [EHT 1864] + CC1(C)CCC(c2ccc(Cl)cc2)=C(CN2CCN(c3ccc(C(=O)NS(=O)(=O)c4ccc(N[C@H](CCN5CCOCC5)CSc5ccccc5)c(S(=O)(=O)C(F)(F)F)c4)cc3)CC2)C1 [Navitoclax] (partner 0.5 µM)
How it was run: (§1)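 Cells from lung cancer lines were seeded into 1536-well plates and, one day later, dosed by pin tool. Treatments were either a single drug or a fixed dose of an anchor drug with five library-drug doses (not always all listed) in √10 steps. After 5 days, nuclei were stained in a one-step fixation (final 0.05% Triton X-100, 1% formaldehyde, 1 ug/ml Hoechst) and counted on 4× images, and relative viability is the treated-to-vehicle nuclei ratio, as the median of duplicate plates.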

EHT 1864 + Crizotinib = compound: C1COCCN1CC2=CC(=O)C(=CO2)OCCCCCSC3=C4C=CC(=CC4=NC=C3)C(F)(F)F [EHT 1864] + C[C@@H](Oc1cc(-c2cnn(C3CCNCC3)c2)cnc1N)c1c(Cl)ccc(F)c1Cl [Crizotinib] (partner 1 µM)
How it was run: as §1

EHT 1864 + Tozasertib = compound: C1COCCN1CC2=CC(=O)C(=CO2)OCCCCCSC3=C4C=CC(=CC4=NC=C3)C(F)(F)F [EHT 1864] + Cc1cc(Nc2cc(N3CCN(C)CC3)nc(Sc3ccc(NC(=O)C4CC4)cc3)n2)n[nH]1 [Tozasertib] (partner 0.1 µM)
How it was run: as §1

EHT 1864 + Vorinostat = compound: C1COCCN1CC2=CC(=O)C(=CO2)OCCCCCSC3=C4C=CC(=CC4=NC=C3)C(F)(F)F [EHT 1864] + O=C(CCCCCCC(=O)Nc1ccccc1)NO [Vorinostat] (partner 1 µM)
How it was run: as §1

Cell Line	relative viability (EHT 1864 + Navitoclax; first compound 0.04 µM)	relative viability (EHT 1864 + Navitoclax; first compound 0.1265 µM)	relative viability (EHT 1864 + Navitoclax; first compound 0.4 µM)	relative viability (EHT 1864 + Navitoclax; first compound 1.265 µM)	relative viability (EHT 1864 + Navitoclax; first compound 4 µM)	relative viability (EHT 1864 + Crizotinib; first compound 0.04 µM)	relative viability (EHT 1864 + Crizotinib; first compound 0.1265 µM)	relative viability (EHT 1864 + Crizotinib; first compound 0.4 µM)	relative viability (EHT 1864 + Crizotinib; first compound 1.265 µM)	relative viability (EHT 1864 + Crizotinib; first compound 4 µM)	relative viability (EHT 1864 + Tozasertib; first compound 0.04 µM)	relative viability (EHT 1864 + Tozasertib; first compound 0.4 µM)	relative viability (EHT 1864 + Tozasertib; first compound 1.265 µM)	relative viability (EHT 1864 + Tozasertib; first compound 4 µM)	relative viability (EHT 1864 + Vorinostat; first compound 0.04 µM)	relative viability (EHT 1864 + Vorinostat; first compound 0.1265 µM)	relative viability (EHT 1864 + Vorinostat; first compound 0.4 µM)	relative viability (EHT 1864 + Vorinostat; first compound 1.265 µM)	relative viability (EHT 1864 + Vorinostat; first compound 4 µM)	relative viability (EHT 1864 + Tozasertib; first compound 0.1265 µM)
NCI-H1734	0.916	0.828	0.849	0.867	0.747	0.67	0.626	0.632	0.723	0.721	0.282	0.265	0.273	0.259	0.94	0.532	0.818	0.751	0.837	
NCI-H2228	1.08	0.847	0.755	0.836	0.827	0.523	0.479	0.509	0.341	0.361	0.335	0.209	0.204	0.16	0.658	0.641	0.571		0.365	0.332
COR-L23	1.01	0.901	1.01	0.979	0.932	0.684	0.559	0.59	0.552	0.596	0.248	0.21	0.131	0.155	0.476	0.333	0.476	0.435	0.433	0.176
NCI-H1993	0.84	0.697	0.866	1.08	0.849	0.882	0.78	0.751	0.817	0.958	0.581	0.549	0.575	0.536	0.896		0.912	0.806	0.863	
NCI-H1437	1.06	1.03	0.967	0.819	0.671	0.87	0.918	0.845	0.838	0.642	0.428	0.4	0.343	0.377	0.84	0.866	0.757	0.542	0.479	0.303
UMC-11	0.345	0.294	0.27	0.304	0.322	0.611	0.537	0.568	0.607	0.507	0.206	0.2	0.207	0.192	0.372	0.482	0.41	0.398	0.534	
201T	1.27	1.2	1.22	1.15	1.16	1.05	1.03	1	0.984	1	0.916	0.983	0.853	0.864	0.901	0.876	1.01	0.923	0.811	0.912
SK-MES-1	1.3	1.13	1.29	1.31	1.17	1	0.972	1.04	0.968	0.996	0.972	0.888	0.823	0.81	1.1	0.983	1.1	1.1	1.03	0.885
